“And” between values parts separate entries of the source, which are not always exact repeats. Equal entries are not always repeated. Where two headings read alike, the source gives them in different places.
Experiments:
[1] = target: T1, rat α4β2 nAChR (Rattus norvegicus, UniProt P09483+P12390); experiment: Ca2+ flux (FLIPR) agonist/antagonist assay; assay type: cell-based; details: FLIPR antagonist mode, EC90 ACh
T1 construct: expressed in transfected cells; host or cells: HEK293 (made by Bristol-Myers Squibb)

[2] = target: Rat Brain α7 nAChR (Rattus norvegicus, UniProt Q05941); experiment: [3H]-A-585539 filtration binding
[3] = system: C57Bl/6 mice; experiment: Mouse 24 h novel object recognition; assay type: in vivo
Experimental: The procedure followed a 3 day protocol. On day 1 (habituation) individual mice were habituated to the testing chamber (a white PVC box 48 cm long x 38 cm wide x 20 cm high with brown linoleum flooring) for 15 min then returned to their home cage. On day 2 (training) individual mice were returned to the testing chamber containing 2 identical objects and allowed to explore. The training session lasted for up to 15 min or until the mouse explored the objects for a total of 60 s. A maximal trial duration of 15 min was used to accommodate mice that are slower to initiate exploration. On day 3 (testing) individual mice were returned to the testing chamber 24 h later containing 1 familiar object encountered in the previous training session and one novel object. The testing session lasted up to 10 min or until the mouse explored the objects for a total of 60 s. The objects used for these studies were made of duplex legos approximately 3 inches high x 1 inch wide; one object was a multicolored rectangle and the second object was a solid color rectangle with a short arm attached. The location of the objects was counterbalanced between animals but was consistent within animals so that only the object itself was novel on the test session. The familiar object used during the test session was the same object used during training and all objects were thoroughly cleaned between sessions and between subjects. Animal behavior was video recorded during both training and testing and the amount of time spent exploring the objects determined using Cleversys software. Object exploration was only scored when the animal’s nose was within 1 cm of the object. […] The vehicle was chosen for sc dosing to ensure that BMS-933043 was dosed as a solution and not a suspension. […] For each subject the % discrimination index (DI) was calculated for both the training and test session as follows: %DI training = (time exploring object 1—time exploring object 2)/(total time exploring object 1 + object 2) X 100; %DI testing = (time exploring novel object—time exploring familiar object)/(total time exploring novel + familiar object) X 100.

[4] = Plasma and brain concentrations after dosing; assay type: in vivo, mouse; details: for Brain Mean ± SD / concentration at 30 min / Kp at 30 min: 30 min; for concentration at 60 min: sc, Mouse MK-801 Y Maze
Experimental: Occupancy determinations were made either on completion of behavioral testing or in satellite groups of animals dosed in parallel with behavioral testing. At specified time points after dosing, the forebrain (for occupancy), the remaining hindbrain (for brain drug exposure) and plasma were collected, frozen in chilled isopentane and stored at -80°C until assayed. […] Homogenized tissue aliquots were frozen immediately and stored at -80°C. […] Non-specific binding was defined by adding 25 μM MLA to wells containing tissues from vehicle-treated animals. […] The filters were washed with ice-cold assay buffer, punched into a clear plate and 200 μl scintillation fluid added per well. Bound radioactivity was measured using a Wallac Microbeta liquid scintillation counter. Specific binding was calculated by subtracting the value of the non-specific binding from that of the total binding in each sample. The percent occupancy was calculated as [1 –(specific binding in drug treated mice/specific binding in vehicle treated mice)] x 100.
In brief, 50 μL of the plasma sample was extracted by protein precipitation with 150 μL acetonitrile containing an internal standard and 5 μL of supernatant injected into the LC-MS/MS system. Analytes were separated by reversed phase chromatography and detection of each analyte was achieved through selected reaction monitoring mode of mass spectrometry.

[5] = target: Progesterone receptor (Homo sapiens, UniProt P06401); experiment: Selectivity panel, binding
[6] = target: T2, human 5-HT3A receptors (Homo sapiens, UniProt P46098); experiment: biochemical
T2 sequence (P46098 24-478): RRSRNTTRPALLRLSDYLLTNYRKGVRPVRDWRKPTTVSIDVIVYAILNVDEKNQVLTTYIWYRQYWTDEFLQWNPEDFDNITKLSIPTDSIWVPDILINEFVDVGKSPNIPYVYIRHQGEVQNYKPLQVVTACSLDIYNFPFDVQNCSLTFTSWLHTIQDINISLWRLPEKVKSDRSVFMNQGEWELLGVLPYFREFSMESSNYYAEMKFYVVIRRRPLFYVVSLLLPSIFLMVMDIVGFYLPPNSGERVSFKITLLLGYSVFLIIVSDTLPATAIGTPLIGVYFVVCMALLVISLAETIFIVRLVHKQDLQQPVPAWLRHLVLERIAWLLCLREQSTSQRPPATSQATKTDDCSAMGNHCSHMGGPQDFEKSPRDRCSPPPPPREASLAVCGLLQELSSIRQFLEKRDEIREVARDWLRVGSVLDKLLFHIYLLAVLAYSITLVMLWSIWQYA

Sequence of Rat Brain α7 nAChR (Q05941 23-502): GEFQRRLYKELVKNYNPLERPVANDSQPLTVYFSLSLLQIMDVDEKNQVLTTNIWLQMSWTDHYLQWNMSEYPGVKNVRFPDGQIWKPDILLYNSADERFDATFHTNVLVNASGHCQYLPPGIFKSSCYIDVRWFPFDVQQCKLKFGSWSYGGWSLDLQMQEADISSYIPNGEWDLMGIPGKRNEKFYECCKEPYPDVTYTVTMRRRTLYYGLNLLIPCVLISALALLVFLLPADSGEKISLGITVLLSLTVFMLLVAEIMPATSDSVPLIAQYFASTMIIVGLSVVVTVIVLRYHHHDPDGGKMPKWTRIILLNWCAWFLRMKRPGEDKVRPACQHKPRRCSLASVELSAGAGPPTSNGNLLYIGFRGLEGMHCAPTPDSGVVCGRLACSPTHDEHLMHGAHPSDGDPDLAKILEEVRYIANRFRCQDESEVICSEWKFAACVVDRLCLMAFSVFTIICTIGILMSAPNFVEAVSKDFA
Sequence of Progesterone receptor (P06401 whole entry): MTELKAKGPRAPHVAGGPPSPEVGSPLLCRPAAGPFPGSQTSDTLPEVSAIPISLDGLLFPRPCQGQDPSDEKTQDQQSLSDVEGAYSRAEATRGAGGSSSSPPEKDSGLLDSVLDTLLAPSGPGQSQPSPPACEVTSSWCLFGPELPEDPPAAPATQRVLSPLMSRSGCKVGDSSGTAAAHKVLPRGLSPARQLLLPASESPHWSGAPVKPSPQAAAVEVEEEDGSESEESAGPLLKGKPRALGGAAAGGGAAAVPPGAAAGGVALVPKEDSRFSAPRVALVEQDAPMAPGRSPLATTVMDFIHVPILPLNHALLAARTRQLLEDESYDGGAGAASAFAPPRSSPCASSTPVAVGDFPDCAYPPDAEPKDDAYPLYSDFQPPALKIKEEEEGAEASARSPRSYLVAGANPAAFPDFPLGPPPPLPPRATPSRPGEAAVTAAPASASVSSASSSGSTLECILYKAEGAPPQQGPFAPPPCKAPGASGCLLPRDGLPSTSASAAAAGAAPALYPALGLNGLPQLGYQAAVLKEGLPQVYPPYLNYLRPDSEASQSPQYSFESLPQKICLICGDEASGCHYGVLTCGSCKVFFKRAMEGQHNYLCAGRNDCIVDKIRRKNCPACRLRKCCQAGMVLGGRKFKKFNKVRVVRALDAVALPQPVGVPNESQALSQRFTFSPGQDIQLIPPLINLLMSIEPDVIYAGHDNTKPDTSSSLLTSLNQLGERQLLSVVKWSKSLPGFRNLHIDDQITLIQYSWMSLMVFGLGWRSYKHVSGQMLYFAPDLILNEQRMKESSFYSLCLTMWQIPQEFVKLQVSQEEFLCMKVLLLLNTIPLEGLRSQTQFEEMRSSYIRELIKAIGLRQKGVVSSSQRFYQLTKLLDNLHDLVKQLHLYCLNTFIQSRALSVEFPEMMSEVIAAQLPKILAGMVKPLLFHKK
T1 sequence (P09483 31-630): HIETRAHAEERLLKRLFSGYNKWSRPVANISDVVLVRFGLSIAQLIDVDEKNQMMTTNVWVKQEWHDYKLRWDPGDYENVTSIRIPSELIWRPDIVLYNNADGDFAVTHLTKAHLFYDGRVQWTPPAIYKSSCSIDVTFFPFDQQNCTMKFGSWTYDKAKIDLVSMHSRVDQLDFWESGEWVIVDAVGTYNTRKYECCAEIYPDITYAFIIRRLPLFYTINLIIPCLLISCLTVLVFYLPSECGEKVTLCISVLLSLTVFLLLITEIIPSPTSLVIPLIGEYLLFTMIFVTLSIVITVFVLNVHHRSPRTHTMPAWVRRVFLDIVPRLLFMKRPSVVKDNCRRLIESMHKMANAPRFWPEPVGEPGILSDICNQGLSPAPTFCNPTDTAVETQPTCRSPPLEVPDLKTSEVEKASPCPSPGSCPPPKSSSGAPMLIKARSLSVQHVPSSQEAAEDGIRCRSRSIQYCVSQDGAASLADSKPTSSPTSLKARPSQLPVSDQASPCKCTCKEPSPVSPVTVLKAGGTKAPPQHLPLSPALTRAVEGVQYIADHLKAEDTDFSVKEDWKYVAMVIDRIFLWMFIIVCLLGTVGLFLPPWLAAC
T1 sequence (P12390 25-500): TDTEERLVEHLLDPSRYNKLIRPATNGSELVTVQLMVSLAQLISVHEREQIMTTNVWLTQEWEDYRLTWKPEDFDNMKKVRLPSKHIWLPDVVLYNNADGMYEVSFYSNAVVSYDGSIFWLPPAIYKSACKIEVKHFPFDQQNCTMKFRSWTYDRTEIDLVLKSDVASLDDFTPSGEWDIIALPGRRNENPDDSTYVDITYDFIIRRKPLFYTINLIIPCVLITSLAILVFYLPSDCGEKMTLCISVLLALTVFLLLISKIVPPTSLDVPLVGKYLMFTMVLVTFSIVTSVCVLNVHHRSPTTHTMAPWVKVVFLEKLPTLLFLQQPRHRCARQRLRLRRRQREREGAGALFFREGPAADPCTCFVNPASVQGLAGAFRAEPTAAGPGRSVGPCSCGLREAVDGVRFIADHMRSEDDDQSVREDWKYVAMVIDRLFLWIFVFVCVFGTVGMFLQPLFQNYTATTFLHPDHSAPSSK

## c1cn(-c2cc(NC3=NC[C@@]4(CN5CCC4CC5)O3)ncn2)cn1 [BMS-933043, (2R)-N-(6-(1H-imidazol-1-yl)-4-pyrimidinyl)-4'H-spiro[4-azabicyclo[2.2.2]octane-2,5'-[1,3]oxazol]-2'-amine]
[1]
  IC50: > 30000 nM
[2]; Rat Brain α7 nAChR Ki (individual)
  Ki: 2.67 nM and 2.99 nM and 3.08 nM and 3.74 nM and 3.2 nM and 3.82 nM
[2]; Rat Brain α7 nAChR Mean ± SD Ki
  Ki: 3 nM
[2]; read-out: Rat Brain α7 nAChR Mean ± SD Ki
  Ki: 3.3 nM
[3]; mice
  total object exploration time in training or testing session: does not alter total object exploration time
[3]; sc, 30 min prior to training
  effective dose range, 24 h novel object recognition: 0.1 to 10 mg/kg
[4]; Mouse NOR (0.03-1 mg/kg study), 0.03 mg/kg sc
  Brain Mean ± SD: < LLQ
[4]; Mouse NOR (0.03-1 mg/kg study), 0.10 mg/kg sc
  Brain Mean ± SD: < LLQ
[4]; mouse, brain, subcutaneous, 0.3 mg/kg, Mouse NOR (0.03-1 mg/kg study), 0.30 mg/kg sc, read-out: Brain Mean ± SD
  concentration at 30 min: 24 ± 3.9 nM
[4]; mouse, brain, subcutaneous, 1 mg/kg, Mouse NOR (0.03-1 mg/kg study), 1 mg/kg sc, read-out: Brain Mean ± SD
  concentration at 30 min: 78 ± 5.2 nM
[4]; mouse, brain, subcutaneous, 1 mg/kg, Mouse NOR (1-10 mg/kg study), 1 mg/kg sc, read-out: Brain Mean ± SD
  concentration at 30 min: 97 ± 16 nM
[4]; mouse, brain, subcutaneous, 3 mg/kg, Mouse NOR (1-10 mg/kg study), 3 mg/kg sc, read-out: Brain Mean ± SD
  concentration at 30 min: 297 ± 48 nM
[4]; mouse, brain, subcutaneous, 10 mg/kg, Mouse NOR (1-10 mg/kg study), 10 mg/kg sc, read-out: Brain Mean ± SD
  concentration at 30 min: 1110 nM
[4]; mouse, brain/plasma, subcutaneous, 0.3 mg/kg, Mouse NOR (0.03-1 mg/kg study), 0.30 mg/kg sc
  Kp at 30 min: 0.12
[4]; mouse, brain/plasma, subcutaneous, 1 mg/kg, Mouse NOR (0.03-1 mg/kg study), 1 mg/kg sc
  Kp at 30 min: 0.11
[4]; mouse, brain/plasma, subcutaneous, 1 mg/kg, Mouse NOR (1-10 mg/kg study), 1 mg/kg sc
  Kp at 30 min: 0.21
[4]; mouse, brain/plasma, subcutaneous, 3 mg/kg, Mouse NOR (1-10 mg/kg study), 3 mg/kg sc
  Kp at 30 min: 0.19
[4]; mouse, brain/plasma, subcutaneous, 10 mg/kg, Mouse NOR (1-10 mg/kg study), 10 mg/kg sc
  Kp at 30 min: 0.2
[4]; mouse, brain/plasma, subcutaneous, mice, read-out: average brain/plasma
  Kp: 0.17
[4]; mouse, plasma, 0.03 mg/kg, 0.03 mg/kg sc, read-out: Plasma Mean ± SD
  concentration at 60 min: 5 ± 0.4 nM
[4]; mouse, plasma, 0.1 mg/kg, 0.10 mg/kg sc, read-out: Plasma Mean ± SD
  concentration at 60 min: 21 ± 2.4 nM
[4]; mouse, plasma, 0.3 mg/kg, 0.30 mg/kg sc, read-out: Plasma Mean ± SD
  concentration at 60 min: 94 ± 19 nM
[4]; mouse, plasma, 1 mg/kg, 1 mg/kg sc, read-out: Plasma Mean ± SD
  concentration at 60 min: 254 ± 32 nM
[4]; mouse, plasma, 3 mg/kg, 3 mg/kg sc, read-out: Plasma Mean ± SD
  concentration at 60 min: 774 ± 282 nM
[4]; mouse, plasma, 10 mg/kg, 10 mg/kg sc, read-out: Plasma Mean ± SD
  concentration at 60 min: 2980 nM
[4]; mouse, plasma, subcutaneous, 0.03 mg/kg, Mouse NOR (0.03-1 mg/kg study), 0.03 mg/kg sc, read-out: Plasma Mean ± SD
  concentration at 30 min: 14 ± 2.7 nM
[4]; mouse, plasma, subcutaneous, 0.1 mg/kg, Mouse NOR (0.03-1 mg/kg study), 0.10 mg/kg sc, read-out: Plasma Mean ± SD
  concentration at 30 min: 52 ± 3.6 nM
[4]; mouse, plasma, subcutaneous, 0.3 mg/kg, Mouse NOR (0.03-1 mg/kg study), 0.30 mg/kg sc, read-out: Plasma Mean ± SD
  concentration at 30 min: 213 ± 49 nM
[4]; mouse, plasma, subcutaneous, 1 mg/kg, Mouse NOR (0.03-1 mg/kg study), 1 mg/kg sc, read-out: Plasma Mean ± SD
  concentration at 30 min: 719 ± 69 nM
[4]; mouse, plasma, subcutaneous, 1 mg/kg, Mouse NOR (1-10 mg/kg study), 1 mg/kg sc, read-out: Plasma Mean ± SD
  concentration at 30 min: 459 ± 59 nM
[4]; mouse, plasma, subcutaneous, 3 mg/kg, Mouse NOR (1-10 mg/kg study), 3 mg/kg sc, read-out: Plasma Mean ± SD
  concentration at 30 min: 1570 nM
[4]; mouse, plasma, subcutaneous, 10 mg/kg, Mouse NOR (1-10 mg/kg study), 10 mg/kg sc, read-out: Plasma Mean ± SD
  concentration at 30 min: 5560 nM
[5]
  IC50: > 150000 nM
[6]; HEK293/human 5-HT3A Ki (individual), individual determinations
  Ki: 2310 nM and 2590 nM
[6]; human 5-HT3A mean Ki ± SD
  Ki: 2450 nM

— publication PMC4965148 (PLoS ONE, 2016)
